Data as given in PubChem BioAssay AID504463 (NMMLSC, 2011).
Active and inactive are the calls of the source.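 The calls were made as follows: active = fluorescence span above 25 thousand equivalent fluorochrome units, or a 33 microM versus DMSO difference score above 25; inactive = the rest.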

These compounds were tested on S. cerevisiae s288c autofluorescence, flow cytometry 520 nm, 3 h (assay: compound green fluorescence in S. cerevisiae cells – flow cytometry, strain s288c, KU SAR set 2, multiplex, artefact control for yeast TOR pathway modulator project, dose response (AID 504463)). Details: at 33.3 µM; stronger effect = higher value.

Fluorescence change (kMESF span), inactive:
CCNc1nc(NC2CCCCC2)c([N+](=O)[O-])c(N2CCOCC2)n1 0
CNc1nc(N)cc(Nc2cccc(Cl)c2)n1 0.06
CNc1nc(N)c([N+](=O)[O-])c(Nc2cccc(Oc3ccccc3)c2)n1 0.07
CNc1nc(NC2CCCCC2)c([N+](=O)[O-])c(N2CCOCC2)n1 0.14
CNc1nc(NC)c([N+](=O)[O-])c(Nc2cccc(Cl)c2)n1 0.07
CCNc1nc(N)c([N+](=O)[O-])c(Nc2cccc(Cl)c2)n1 0.49
COc1cccc(-c2cc(Nc3cc(C)[nH]n3)nc(NCc3ccccc3)n2)c1 0.13
Cc1cc(Nc2cc(-c3ccccc3)nc(NCc3ccccc3)n2)n[nH]1 0.06
CNc1nc(N)c([N+](=O)[O-])c(Nc2ccccc2F)n1 0.07
CCOC(=O)c1c(N)nc(NC)nc1Nc1cccc(F)c1 0.13
CNc1nc(N)c(C(=O)c2ccc(C)c(C)c2)c(Nc2cccc(Cl)c2)n1 0.07
CNc1nc(N)cc(Nc2ccccc2F)n1 0
O=[N+]([O-])c1c(NC2CCCCC2)nc(NCc2ccccc2)nc1N1CCOCC1 0
CNc1nc(N)c([N+](=O)[O-])c(Nc2cccc(OC)c2)n1 0.14
CNc1nc(N)c([N+](=O)[O-])c(Nc2cccc(Br)c2)n1 0.07
CNc1nc(N)cc(Oc2cccc(Cl)c2)n1 0.06
CNc1nc(N)c([N+](=O)[O-])c(Nc2ccccc2Br)n1 0.07
COc1ccccc1-c1cc(Nc2cc(C)[nH]n2)nc(NCc2ccccc2)n1 0.06
Cc1cc(Nc2cc(Nc3ccccc3)nc(NCc3ccccc3)n2)n[nH]1 0.07
COC(=O)c1cccc(-c2cc(Nc3cc(C)[nH]n3)nc(NCc3ccccc3)n2)c1 0.06
